Each molecule was assayed against T1, GST-tagged-Wee1 kinase (Homo sapiens, UniProt P30291) (assay: Wee1 time-resolved fluorescence equilibrium binding assay (displacement of Oregon Green-labeled ATP-competitive kinase probe)). Conditions: read-out: Wee-1 inhibition (Ki).
T1 construct: purchased Carnabio (Carna Biosciences) 05-177
In short: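 Ki values derive from competitive displacement, under equilibrium, of a fast-reversible ATP-site Oregon Green kinase probe from GST-tagged Wee1, detected by time-resolved fluorescence.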

T1 sequence (P30291 whole entry): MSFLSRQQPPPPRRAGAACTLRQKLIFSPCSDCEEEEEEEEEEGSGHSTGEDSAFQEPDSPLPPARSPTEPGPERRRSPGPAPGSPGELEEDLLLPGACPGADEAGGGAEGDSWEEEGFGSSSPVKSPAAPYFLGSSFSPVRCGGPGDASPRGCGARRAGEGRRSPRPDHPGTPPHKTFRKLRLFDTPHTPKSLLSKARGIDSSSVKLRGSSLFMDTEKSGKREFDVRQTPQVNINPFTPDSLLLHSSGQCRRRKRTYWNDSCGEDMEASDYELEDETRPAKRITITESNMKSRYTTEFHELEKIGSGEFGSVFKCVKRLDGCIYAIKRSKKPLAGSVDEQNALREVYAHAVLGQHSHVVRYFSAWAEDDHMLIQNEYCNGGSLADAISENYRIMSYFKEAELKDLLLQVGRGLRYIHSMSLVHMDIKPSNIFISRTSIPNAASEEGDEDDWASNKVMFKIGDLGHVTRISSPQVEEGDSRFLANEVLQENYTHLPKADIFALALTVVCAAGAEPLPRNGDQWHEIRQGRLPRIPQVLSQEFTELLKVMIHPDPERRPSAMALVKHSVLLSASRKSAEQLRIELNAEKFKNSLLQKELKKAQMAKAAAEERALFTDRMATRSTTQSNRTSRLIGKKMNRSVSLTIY

| Compound | Ki [nM] |
| --- | --- |
| CN(C)C1CCC(NC(=O)c2ccc(Nc3ncc4c(=O)n(-c5c(Cl)cccc5Cl)c5nccn5c4n3)cc2)CC1 (stereo not drawn) [Example 238, 4-{[6-(2,6-dichlorophenyl)-5-oxo-5,6-dihydroimidazo[1,2-a]pyrimido[5,4-e]pyrimidin-2-yl]amino}-N-[4-(dimethylamino)cyclohexyl]benzamide] | < 10 |
| CN1CCC(NC(=O)c2ccc(Nc3ncc4c(=O)n(-c5c(Cl)cccc5Cl)c5nccn5c4n3)cc2)CC1 [Example 239, 4-{[6-(2,6-dichlorophenyl)-5-oxo-5,6-dihydroimidazo[1,2-a]pyrimido[5,4-e]pyrimidin-2-yl]amino}-N-(1-methylpiperidin-4-yl)benzamide] | < 10 |
| CS(=O)(=O)N1Cc2cc(Nc3ncc4c(=O)n(-c5c(F)cccc5Cl)c5nccn5c4n3)ccc2C2(CC2)C1 [Example 243, 6-(2-chloro-6-fluorophenyl)-2-{[2′-(methylsulfonyl)-2′,3′-dihydro-1′H-spiro[cyclopropane-1,4′-isoquinolin]-7′-yl]amino}imidazo[1,2-a]pyrimido[5,4-e]pyrimidin-5(6H)-one] | < 10 |
| O=c1c2cnc(Nc3ccc(N[C@H]4CN5CCC4CC5)cc3)nc2n2ccnc2n1-c1ccccc1Cl [Example 245, 2-({4-[(3R)-1-azabicyclo[2.2.2]oct-3-ylamino]phenyl}amino)-6-(2-chlorophenyl)imidazo[1,2-a]pyrimido[5,4-e]pyrimidin-5(6H)-one] | < 10 |
| O=c1c2cnc(Nc3ccc(NCCN4CCCC4)cc3)nc2n2ccnc2n1-c1ccccc1Cl [Example 246, 6-(2-chlorophenyl)-2-[(4-{[2-(pyrrolidin-1-yl)ethyl]amino}phenyl)amino]imidazo[1,2-a]pyrimido[5,4-e]pyrimidin-5(6H)-one] | < 10 |
| O=c1c2cnc(Nc3ccc(N4CCN(c5ccccn5)CC4)cc3)nc2n2ccnc2n1-c1ccccc1Cl [Example 247, 6-(2-chlorophenyl)-2-({4-[4-(pyridin-2-yl)piperazin-1-yl]phenyl}amino)imidazo[1,2-a]pyrimido[5,4-e]pyrimidin-5(6H)-one] | < 10 |
| O=c1c2cnc(Nc3ccc(NCCN4CCOCC4)cc3)nc2n2ccnc2n1-c1ccccc1Cl [Example 248, 6-(2-chlorophenyl)-2-[(4-{[2-(morpholin-4-yl)ethyl]amino}phenyl)amino]imidazo[1,2-a]pyrimido[5,4-e]pyrimidin-5(6H)-one] | < 10 |
| CN(C)CCCN1CCN(c2ccc(Nc3ncc4c(=O)n(-c5ccccc5Cl)c5nccn5c4n3)cc2)CC1 [Example 250, 6-(2-chlorophenyl)-2-[(4-{4-[3-(dimethylamino)propyl]piperazin-1-yl}phenyl)amino]imidazo[1,2-a]pyrimido[5,4-e]pyrimidin-5(6H)-one] | < 10 |
| O=c1c2cnc(Nc3ccc(N4CCN(c5ccc(F)cc5)CC4)cc3)nc2n2ccnc2n1-c1ccccc1Cl [Example 254, 6-(2-chlorophenyl)-2-({4-[4-(4-fluorophenyl)piperazin-1-yl]phenyl}amino)imidazo[1,2-a]pyrimido[5,4-e]pyrimidin-5(6H)-one] | 10 to 100 |
| CN(C)C1CCN(c2ccc(Nc3ncc4c(=O)n(-c5c(F)cccc5Cl)c5nccn5c4n3)cc2)CC1 [Example 255, 6-(2-chloro-6-fluorophenyl)-2-({4-[4-(dimethylamino)piperidin-1-yl]phenyl}amino)imidazo[1,2-a]pyrimido[5,4-e]pyrimidin-5(6H)-one] | < 10 |

Next, values leading:

| Ki [nM] | Compound |
| --- | --- |
| < 10 | NC(=O)C1CCN(c2ccc(Nc3ncc4c(=O)n(-c5ccccc5Cl)c5nccn5c4n3)cc2)CC1 [Example 235, 1-(4-{[6-(2-chlorophenyl)-5-oxo-5,6-dihydroimidazo[1,2-a]pyrimido[5,4-e]pyrimidin-2-yl]amino}phenyl)piperidine-4-carboxamide] |
| < 10 | O=c1c2cnc(Nc3ccc(N4CCC(N5CCOCC5)CC4)cc3)nc2n2ccnc2n1-c1ccccc1Cl [Example 236, 6-(2-chlorophenyl)-2-({4-[4-(morpholin-4-yl)piperidin-1-yl]phenyl}amino)imidazo[1,2-a]pyrimido[5,4-e]pyrimidin-5(6H)-one] |
| < 10 | CN(C)C1CCN(C(=O)c2ccc(Nc3ncc4c(=O)n(-c5c(Cl)cccc5Cl)c5nccn5c4n3)cc2)CC1 [Example 237, 6-(2,6-dichlorophenyl)-2-[(4-{[4-(dimethylamino)piperidin-1-yl]carbonyl}phenyl)amino]imidazo[1,2-a]pyrimido[5,4-e]pyrimidin-5(6H)-one] |
| < 10 | O=c1c2cnc(Nc3ccc(N4CCC(N5CCCC5)CC4)cc3)nc2n2ccnc2n1-c1c(Cl)cccc1Cl [Example 240, 6-(2,6-dichlorophenyl)-2-({4-[4-(pyrrolidin-1-yl)piperidin-1-yl]phenyl}amino)imidazo[1,2-a]pyrimido[5,4-e]pyrimidin-5(6H)-one] |
| < 10 | CC(=O)N1Cc2cc(Nc3ncc4c(=O)n(-c5c(F)cccc5Cl)c5nccn5c4n3)ccc2C2(CC2)C1 [Example 241, 2-[(2′-acetyl-2′,3′-dihydro-1′H-spiro[cyclopropane-1,4′-isoquinolin]-7′-yl)amino]-6-(2-chloro-6-fluorophenyl)imidazo[1,2-a]pyrimido[5,4-e]pyrimidin-5(6H)-one] |
| < 10 | O=C(C1CC1)N1Cc2cc(Nc3ncc4c(=O)n(-c5c(F)cccc5Cl)c5nccn5c4n3)ccc2C2(CC2)C1 [Example 242, 6-(2-chloro-6-fluorophenyl)-2-{[2′-(cyclopropylcarbonyl)-2′,3′-dihydro-1′H-spiro[cyclopropane-1,4′-isoquinolin]-7′-yl]amino}imidazo[1,2-a]pyrimido[5,4-e]pyrimidin-5(6H)-one] |
| < 10 | O=c1c2cnc(Nc3ccc(N4CCN5CCC[C@@H]5C4)cc3)nc2n2ccnc2n1-c1c(F)cccc1Cl [Example 244, 6-(2-chloro-6-fluorophenyl)-2-({4-[(8aR)-hexahydropyrrolo[1,2-a]pyrazin-2(1H)-yl]phenyl}amino)imidazo[1,2-a]pyrimido[5,4-e]pyrimidin-5(6H)-one] |
| < 10 | O=c1c2cnc(Nc3ccc(N4CCC[C@H]4CN4CCCC4)cc3)nc2n2ccnc2n1-c1ccccc1Cl [Example 249, 6-(2-chlorophenyl)-2-({4-[(2S)-2-(pyrrolidin-1-ylmethyl)pyrrolidin-1-yl]phenyl}amino)imidazo[1,2-a]pyrimido[5,4-e]pyrimidin-5(6H)-one] |
| < 10 | COC[C@H]1CCCN1c1ccc(Nc2ncc3c(=O)n(-c4ccccc4Cl)c4nccn4c3n2)cc1 [Example 251, 6-(2-chlorophenyl)-2-({4-[(2R)-2-(methoxymethyl)pyrrolidin-1-yl]phenyl}amino)imidazo[1,2-a]pyrimido[5,4-e]pyrimidin-5(6H)-one] |
| < 10 | CCN(CC)C(=O)C1CCCN(c2ccc(Nc3ncc4c(=O)n(-c5ccccc5Cl)c5nccn5c4n3)cc2)C1 (stereo not drawn) [Example 252, 1-(4-{[6-(2-chlorophenyl)-5-oxo-5,6-dihydroimidazo[1,2-a]pyrimido[5,4-e]pyrimidin-2-yl]amino}phenyl)-N,N-diethylpiperidine-3-carboxamide] |
| < 10 | O=C1CCCN1CCCNc1ccc(Nc2ncc3c(=O)n(-c4ccccc4Cl)c4nccn4c3n2)cc1 [Example 253, 6-(2-chlorophenyl)-2-[(4-{[3-(2-oxopyrrolidin-1-yl)propyl]amino}phenyl)amino]imidazo[1,2-a]pyrimido[5,4-e]pyrimidin-5(6H)-one] |
